The test system of assay [1] is Lepidium sativum L. seeds. The conditions noted are these: 24 h incubation, mean(±SD), n = 3.
The test system of assay [2] is Lepidium sativum L. roots. The settings on record: 24 h incubation, mean(±SD), n = 3.
[3] abbreviates: 0.01% (w/w) compound in the medium.
Setting [4] is: 0.03% (w/w) compound in the medium.
Setting [5] is: 0.05% (w/w) compound in the medium.
[6] abbreviates: 0.10% (w/w) compound in the medium.
Where [7] appears, read: 0.30% (w/w) compound in the medium.
Setting [8] is: 0.50% (w/w) compound in the medium.
The mark [9] stands for this setting: 1.00% (w/w) compound in the medium.
Setting [10] is: 2.00% (w/w) compound in the medium.
[11] abbreviates: 3.00% (w/w) compound in the medium.
Setting [12] is: 4.00% (w/w) compound in the medium.
[13] abbreviates: 5.00% (w/w) compound in the medium.

Read-outs that look alike come from different tables or passages of the source.

On to `N[C@@H](Cc1c[nH]c2ccccc12)C(=O)O.OCCN(CCO)CCO` [[TEA][Trp]], for which the “Inhibition of the Lepidium sativum seeds germination (ISG, %)” value (“Inhibition … (ISG, %)” below) in assay [1] (setting [3]) was 0.0(±0.0) %; in assay [1] (setting [4]), 1.9(±0.5) %; in assay [1] (setting [5]), 3.7(±1.3) %; in assay [1] (setting [6]) it was 12.0(±0.8) %; in assay [1] (setting [7]), 16.7(±2.2) %; in assay [1] (setting [8]), 18.5(±1.8) %. In addition, the “Inhibition … (ISG, %)” value in assay [1] (setting [9]) was 28.7(±1.3) %; in assay [1] (setting [10]), 38.9(±1.6) %; in assay [1] (setting [11]), 53.7%; in assay [1] (setting [12]), 61.1(±1.4) %; in assay [1] (setting [13]) it was 83.3(±0.8) %. Besides, the “Inhibition of the root growth in pregerminated Lepidium sativum seeds (IRG, %)” value (from here on “Inhibition of the root growth … (IRG, %)”) is 38.1% in assay [2] (setting [3]); 41.1(±1.2) % in assay [2] (setting [4]); 48.8(±1.0) % in assay [2] (setting [5]); 51.9(±1.0) % in assay [2] (setting [6]); 53.3(±0.4) % in assay [2] (setting [7]); 54.7(±1.0) % in assay [2] (setting [8]). In addition, the “Inhibition of the root growth … (IRG, %)” value was 57.6(±0.8) % in assay [2] (setting [9]); 69.0(±0.8) % in assay [2] (setting [10]); 76.0(±0.7) % in assay [2] (setting [11]); 88.8(±0.6) % in assay [2] (setting [12]); 95.0(±0.4) % in assay [2] (setting [13]).
As to `NC(=O)CCC(N)C(=O)O.OCCN(CCO)CCO` (stereo not shown) [[TEA][Gln]], the “Inhibition … (ISG, %)” value was 0.0(±0.0) % in assay [1] (setting [3]); 0.0(±0.0) % in assay [1] (setting [4]); 0.0(±0.0) % in assay [1] (setting [5]); 1.7(±2.2) % in assay [1] (setting [6]); 9.2(±1.3) % in assay [1] (setting [7]); 15.0(±0.5) % in assay [1] (setting [8]). Besides, the “Inhibition … (ISG, %)” value in assay [1] (setting [9]) is 20.8(±2.6) %; in assay [1] (setting [10]) it was 38.1(±2.1) %; in assay [1] (setting [11]) it was 53.8(±2.5) %; in assay [1] (setting [12]), 86.7(±1.3) %. Moreover, the “Inhibition of the root growth … (IRG, %)” value in assay [2] (setting [3]) is 13.0(±2.0) %; in assay [2] (setting [4]), 20.7(±1.8) %; in assay [2] (setting [5]), 21.0(±2.2) %; in assay [2] (setting [6]) it was 26.9(±1.8) %; in assay [2] (setting [7]), 50.5%; in assay [2] (setting [8]) it was 63.6(±1.3) %. The “Inhibition of the root growth … (IRG, %)” value in assay [2] (setting [9]) is recorded as 72.9(±0.9) %; in assay [2] (setting [10]), 78.1(±1.0) %; in assay [2] (setting [11]), 85.2(±0.9) %; in assay [2] (setting [12]) it was 92.4(±0.5) %; in assay [2] (setting [13]), 93.6(±0.5) %.
As for `N[C@@H](CC(=O)O)C(=O)O.OCCN(CCO)CCO.OCCN(CCO)CCO` [[TEA]2[Asp]], the “Inhibition … (ISG, %)” value in assay [1] (setting [3]) was 1.8(±0.1) %; in assay [1] (setting [4]) it was 3.6(±1.3) %; in assay [1] (setting [5]) it was 7.3(±0.8) %; in assay [1] (setting [6]), 9.1(±0.5) %; in assay [1] (setting [7]), 12.7(±0.8) %; in assay [1] (setting [8]) it was 16.4(±1.3) %. Also, the “Inhibition … (ISG, %)” value is listed as 18.2(±0.8) % in assay [1] (setting [9]); 19.1(±1.3) % in assay [1] (setting [10]); 20.0(±0.5) % in assay [1] (setting [11]); 30.9(±0.9) % in assay [1] (setting [12]); 50.9(±0.8) % in assay [1] (setting [13]). In addition, the “Inhibition of the root growth … (IRG, %)” value in assay [2] (setting [3]) is listed as 7.7(±1.9) %; in assay [2] (setting [4]) it was 8.6(±2.1) %; in assay [2] (setting [5]) it was 11.6(±1.9) %; in assay [2] (setting [6]), 29.6(±2.0) %; in assay [2] (setting [7]), 32.6(±1.5) %; in assay [2] (setting [8]), 36.6(±1.6) %. The “Inhibition of the root growth … (IRG, %)” value in assay [2] (setting [9]) was 40.7(±1.2) %; in assay [2] (setting [10]), 65.4(±0.7) %; in assay [2] (setting [11]) it was 76.7(±0.7) %; in assay [2] (setting [12]), 82.2(±0.6) %; in assay [2] (setting [13]) it was 86.2(±0.5) %.
As to `NC(=O)C[C@H](N)C(=O)O.OCCN(CCO)CCO` [[TEA][Asn]], the “Inhibition … (ISG, %)” value in assay [1] (setting [3]) was 5.6(±2.9) %; in assay [1] (setting [4]), 6.5(±1.3) %; in assay [1] (setting [5]) it was 7.4(±0.5) %; in assay [1] (setting [6]) it was 9.3(±1.3) %; in assay [1] (setting [7]), 12.0(±0.9) %; in assay [1] (setting [8]), 14.8(±2.4) %. In addition, the “Inhibition … (ISG, %)” value in assay [1] (setting [9]) was 20.4(±2.6) %; in assay [1] (setting [10]), 33.3(±2.9) %; in assay [1] (setting [11]), 46.3(±0.9) %; in assay [1] (setting [12]) it was 67.6(±2.9) %; in assay [1] (setting [13]) it was 88.9(±1.4) %. Also, the “Inhibition of the root growth … (IRG, %)” value in assay [2] (setting [3]) is listed as 4.5(±1.6) %; in assay [2] (setting [4]), 11.6(±1.6) %; in assay [2] (setting [5]), 16.0(±1.6) %; in assay [2] (setting [6]), 32.5(±1.7) %; in assay [2] (setting [7]), 34.9%; in assay [2] (setting [8]) it was 42.7(±1.5) %. In addition, the “Inhibition of the root growth … (IRG, %)” value in assay [2] (setting [9]) is given as 58.9(±1.1) %; in assay [2] (setting [10]), 76.9(±1.0) %; in assay [2] (setting [11]), 81.5(±0.9) %; in assay [2] (setting [12]), 85(±0.8) %; in assay [2] (setting [13]), 88.2(±0.7) %.
Consider `CC(C)[C@H](N)C(=O)O.OCCN(CCO)CCO` [[TEA][Val]], for which the “Inhibition … (ISG, %)” value in assay [1] (setting [3]) is 0.0(±0.9) %; in assay [1] (setting [4]), 0.0(±1.7) %; in assay [1] (setting [5]), 0.0(±1.2) %; in assay [1] (setting [6]), 0.0(±1.2) %; in assay [1] (setting [7]) it was 1.9(±0.5) %; in assay [1] (setting [8]), 3.8(±1.7) %. Also, the “Inhibition … (ISG, %)” value is listed as 5.7(±0.5) % in assay [1] (setting [9]); 17.0(±0.5) % in assay [1] (setting [10]); 28.3(±0.5) % in assay [1] (setting [11]); 34.0(±1.3) % in assay [1] (setting [12]); 52.8(±1.3) % in assay [1] (setting [13]). Moreover, the “Inhibition of the root growth … (IRG, %)” value in assay [2] (setting [3]) was 11.6%; in assay [2] (setting [4]), 11.9(±3.3) %; in assay [2] (setting [5]), 21.7(±2.8) %; in assay [2] (setting [6]), 32.7(±2.9) %; in assay [2] (setting [7]) it was 49.1(±2.5) %; in assay [2] (setting [8]), 54.8(±2.6) %. In addition, the “Inhibition of the root growth … (IRG, %)” value in assay [2] (setting [9]) was 62.9(±2.4) %; in assay [2] (setting [10]) it was 73.3(±1.5) %; in assay [2] (setting [11]), 77.6(±1.7) %; in assay [2] (setting [12]), 82.0(±1.0) %; in assay [2] (setting [13]), 89.9(±0.74) %.
